# Experimental data reported in patent US8802597B2, “Herbicidal pyrimidines” (E I du Pont de Nemours and Company, priority 2003, dated 2014).
# Read-outs that look alike come from different tables or passages of the source.
# Assays:
# Format in all cases: in vivo
# wild oat (Avena fatua) = test: Test B postemergence; conditions: Avena fatua, post-emergence
# Method in brief: (§1)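 Scores reflect visual comparison with untreated controls, where 0 means no effect and 100 complete control. Plants stayed 13 to 15 days in the greenhouse after pre- or postemergence treatment with compounds carried in a non-phytotoxic solvent and surfactant.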
# [1] = test system: blackgrass (Alopecurus myosuroides); test: Test B postemergence; conditions: Alopecurus myosuroides, post-emergence
# Method in brief: as §1
# [2] = test system: umbrella sedge (Cyperus difformis); test: Test B flooded paddy test; conditions: Cyperus difformis, Flood, 1000 g ai/ha; scale 0 to 100; read-out: Plant response rating, Sedge, Umbrella
# Method in brief: (§2)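 Visual injury scoring (0 = no effect, 100 = complete control) versus controls made 13 to 15 days after treatment in the greenhouse. Test species were grown in flooded paddy to the 2-leaf stage: rice, barnyardgrass, umbrella sedge, duck salad.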
# [3] = test system: barnyardgrass (Echinochloa crus-galli); test: Test B flooded paddy test; conditions: Echinochloa crus-galli, Flood, 1000 g ai/ha; scale 0 (no effect) to 100 (complete control); read-out: Plant response rating, Barnyardgrass
# Method in brief: as §2
# [4] = test system: duck salad (Heteranthera limosa); test: Test B flooded paddy test; conditions: Heteranthera limosa, Flood, 1000 g ai/ha; scale 0 to 100; read-out: Plant response rating, Ducksalad
# Method in brief: as §2
# rice (Oryza sativa) = test: Test B flooded paddy test; conditions: Oryza sativa, Flood, 1000 g ai/ha; scale 0 to 100; read-out: Plant response rating, Rice
# Method in brief: as §2
# [5] = test system: crabgrass (Digitaria sanguinalis); test: Test B pre/postemergence; conditions: Digitaria sanguinalis; for pest or weed control at 125 g/ha: 125 g ai/ha; for pest or weed control at 500 g/ha: 500 g ai/ha
# Method in brief: as §1
# [6] = test system: giant foxtail (Setaria faberii); test: Test B pre/postemergence; conditions: Setaria faberi; for pest or weed control at 125 g/ha: 125 g ai/ha; for pest or weed control at 500 g/ha: 500 g ai/ha
# Method in brief: as §1
# [7] = test system: lambsquarters (Chenopodium album); test: Test B pre/postemergence; conditions: Chenopodium album; for pest or weed control at 125 g/ha: 125 g ai/ha; for pest or weed control at 500 g/ha: 500 g ai/ha
# Method in brief: as §1
# [8] = test system: cocklebur (Xanthium strumarium); test: Test B pre/postemergence; conditions: Xanthium strumarium; for pest or weed control at 125 g/ha: 125 g ai/ha; for pest or weed control at 500 g/ha: 500 g ai/ha
# Method in brief: as §1
# [9] = test system: pigweed (Amaranthus retroflexus); test: Test B pre/postemergence; conditions: Amaranthus retroflexus; for pest or weed control at 125 g/ha: 125 g ai/ha; for pest or weed control at 500 g/ha: 500 g ai/ha
# Method in brief: as §1
# [10] = test system: wheat (Triticum aestivum); test: Test B pre/postemergence; conditions: Triticum aestivum; for plant injury at 125 g/ha: 125 g ai/ha; for plant injury at 500 g/ha: 500 g ai/ha
# Method in brief: as §1
# [11] = test system: barnyardgrass (Echinochloa crus-galli); test: Test B pre/postemergence; conditions: Echinochloa crus-galli; for pest or weed control at 125 g/ha: 125 g ai/ha; for pest or weed control at 500 g/ha: 500 g ai/ha
# Method in brief: as §1
# corn (Zea mays) = test: Test B pre/postemergence; conditions: Zea mays
# Method in brief: as §1
# [12] = test system: morningglory (Ipomoea coccinea); test: Test B pre/postemergence; conditions: Ipomoea; for pest or weed control at 125 g/ha: 125 g ai/ha; for pest or weed control at 500 g/ha: 500 g ai/ha
# Method in brief: as §1
# [13] = test system: Surinam grass (Brachiaria decumbens); test: Test B pre/postemergence; conditions: Urochloa decumbens; for pest or weed control at 125 g/ha: 125 g ai/ha; for pest or weed control at 500 g/ha: 500 g ai/ha
# Method in brief: as §1
# [14] = test system: velvetleaf (Abutilon theophrasti); test: Test B pre/postemergence; conditions: Abutilon theophrasti; for pest or weed control at 125 g/ha: 125 g ai/ha; for pest or weed control at 500 g/ha: 500 g ai/ha
# Method in brief: as §1
structure (smiles),measurement,setting,value
COC(=O)c1nc(C(C)C)nc(N)c1Br [Compound 3],pest or weed control at 125 g/ha,"wild oat (Avena fatua); 125 g ai/ha, scale 0 to 100 (0 no effect, 100 complete control), read-out: Oat, Wild plant response rating",10%
same,pest or weed control at 500 g/ha,"wild oat (Avena fatua); 500 g ai/ha, scale 0 to 100, read-out: Plant response rating, Oat, Wild",30%
same,pest or weed control at 125 g/ha,"[1]; 125 g ai/ha, scale 0 to 100 (0 no effect, 100 complete control), read-out: Blackgrass plant response rating",20%
same,pest or weed control at 500 g/ha,"[1]; 500 g ai/ha, scale 0 to 100, read-out: Plant response rating, Blackgrass",50%
same,pest or weed control at 1000 g/ha,[2],0%
same,pest or weed control at 1000 g/ha,[3],0%
same,pest or weed control at 1000 g/ha,[4],0%
same,plant injury at 1000 g/ha,rice (Oryza sativa),0%
same,pest or weed control at 125 g/ha,"[5]; post-emergence, Postemergence, scale 0 to 100 (0 no effect, 100 complete control), read-out: Crabgrass plant response rating",30%
same,pest or weed control at 500 g/ha,"[5]; post-emergence, Postemergence, scale 0 to 100, read-out: Plant response rating, Crabgrass",40%
same,pest or weed control at 125 g/ha,"[5]; pre-emergence, Preemergence, scale 0 to 100 (0 no effect, 100 complete control), read-out: Plant response rating, Crabgrass",10%
same,pest or weed control at 500 g/ha,"[5]; pre-emergence, Preemergence, scale 0 to 100 (0 no effect, 100 complete control), read-out: Crabgrass plant response rating",50%
same,pest or weed control at 125 g/ha,"[6]; post-emergence, Postemergence, scale 0 to 100 (0 no effect, 100 complete control), read-out: Foxtail, Giant plant response rating",20%
same,pest or weed control at 500 g/ha,"[6]; post-emergence, Postemergence, scale 0 to 100, read-out: Plant response rating, Foxtail, Giant",40%
same,pest or weed control at 125 g/ha,"[6]; pre-emergence, Preemergence, scale 0 to 100 (0 no effect, 100 complete control), read-out: Plant response rating, Foxtail, Giant",0%
same,pest or weed control at 500 g/ha,"[6]; pre-emergence, Preemergence, scale 0 to 100 (0 no effect, 100 complete control), read-out: Foxtail, Giant plant response rating",0%
same,pest or weed control at 125 g/ha,"[7]; post-emergence, Postemergence, scale 0 to 100 (0 no effect, 100 complete control), read-out: Lambsquarters plant response rating",100%
same,pest or weed control at 500 g/ha,"[7]; post-emergence, Postemergence, scale 0 to 100, read-out: Plant response rating, Lambsquarters",100%
same,pest or weed control at 125 g/ha,"[7]; pre-emergence, Preemergence, scale 0 to 100 (0 no effect, 100 complete control), read-out: Plant response rating, Lambsquarters",70%
same,pest or weed control at 500 g/ha,"[7]; pre-emergence, Preemergence, scale 0 to 100 (0 no effect, 100 complete control), read-out: Lambsquarters plant response rating",90%
same,pest or weed control at 125 g/ha,"[8]; post-emergence, Postemergence, scale 0 to 100 (0 no effect, 100 complete control), read-out: Cocklebur plant response rating",70%
same,pest or weed control at 500 g/ha,"[8]; post-emergence, Postemergence, scale 0 to 100, read-out: Plant response rating, Cocklebur",100%
same,pest or weed control at 125 g/ha,"[8]; pre-emergence, Preemergence, scale 0 to 100 (0 no effect, 100 complete control), read-out: Plant response rating, Cocklebur",80%
same,pest or weed control at 500 g/ha,"[8]; pre-emergence, Preemergence, scale 0 to 100 (0 no effect, 100 complete control), read-out: Cocklebur plant response rating",80%
same,pest or weed control at 125 g/ha,"[9]; post-emergence, Postemergence, scale 0 to 100 (0 no effect, 100 complete control), read-out: Pigweed plant response rating",80%
same,pest or weed control at 500 g/ha,"[9]; post-emergence, Postemergence, scale 0 to 100, read-out: Plant response rating, Pigweed",90%
same,pest or weed control at 125 g/ha,"[9]; pre-emergence, Preemergence, scale 0 to 100 (0 no effect, 100 complete control), read-out: Plant response rating, Pigweed",80%
same,pest or weed control at 500 g/ha,"[9]; pre-emergence, Preemergence, scale 0 to 100 (0 no effect, 100 complete control), read-out: Pigweed plant response rating",90%
same,plant injury at 125 g/ha,"[10]; post-emergence, Postemergence, scale 0 to 100 (0 no effect, 100 complete control), read-out: Wheat plant response rating",10%
same,plant injury at 500 g/ha,"[10]; post-emergence, Postemergence, scale 0 to 100, read-out: Plant response rating, Wheat",20%
same,plant injury at 125 g/ha,"[10]; pre-emergence, Preemergence, scale 0 to 100 (0 no effect, 100 complete control), read-out: Plant response rating, Wheat",0%
same,plant injury at 500 g/ha,"[10]; pre-emergence, Preemergence, scale 0 to 100 (0 no effect, 100 complete control), read-out: Wheat plant response rating",0%
same,pest or weed control at 125 g/ha,"[11]; post-emergence, Postemergence, scale 0 to 100 (0 no effect, 100 complete control), read-out: Barnyardgrass plant response rating",0%
same,pest or weed control at 500 g/ha,"[11]; post-emergence, Postemergence, scale 0 to 100, read-out: Plant response rating, Barnyardgrass",10%
same,pest or weed control at 125 g/ha,"[11]; pre-emergence, Preemergence, scale 0 to 100 (0 no effect, 100 complete control), read-out: Plant response rating, Barnyardgrass",0%
same,pest or weed control at 500 g/ha,"[11]; pre-emergence, Preemergence, scale 0 to 100 (0 no effect, 100 complete control), read-out: Barnyardgrass plant response rating",0%
same,plant injury at 125 g/ha,"corn (Zea mays); post-emergence, Postemergence, 125 g ai/ha, scale 0 to 100 (0 no effect, 100 complete control), read-out: Corn plant response rating",0%
same,"Corn plant response rating (crop injury, 0 = no effect, 100 = complete kill) at 500 g/ha","corn (Zea mays); post-emergence, Postemergence, 500 g ai/ha, scale 0 to 100",0%
same,"Corn plant response rating (crop injury, 0 = no effect, 100 = complete kill) at 125 g/ha","corn (Zea mays); pre-emergence, Preemergence, 125 g ai/ha, scale 0 to 100 (0 no effect, 100 complete control)",0%
same,plant injury at 500 g/ha,"corn (Zea mays); pre-emergence, Preemergence, 500 g ai/ha, scale 0 to 100 (0 no effect, 100 complete control), read-out: Corn plant response rating",0%
same,pest or weed control at 125 g/ha,"[12]; post-emergence, Postemergence, scale 0 to 100 (0 no effect, 100 complete control), read-out: Morningglory plant response rating",80%
same,pest or weed control at 500 g/ha,"[12]; post-emergence, Postemergence, scale 0 to 100, read-out: Plant response rating, Morningglory",100%
same,pest or weed control at 125 g/ha,"[12]; pre-emergence, Preemergence, scale 0 to 100 (0 no effect, 100 complete control), read-out: Plant response rating, Morningglory",50%
same,pest or weed control at 500 g/ha,"[12]; pre-emergence, Preemergence, scale 0 to 100 (0 no effect, 100 complete control), read-out: Morningglory plant response rating",60%
same,pest or weed control at 125 g/ha,"[13]; post-emergence, Postemergence, scale 0 to 100 (0 no effect, 100 complete control), read-out: Surinam Grass plant response rating",10%
same,pest or weed control at 500 g/ha,"[13]; post-emergence, Postemergence, scale 0 to 100, read-out: Plant response rating, Surinam Grass",30%
same,pest or weed control at 125 g/ha,"[13]; pre-emergence, Preemergence, scale 0 to 100 (0 no effect, 100 complete control), read-out: Plant response rating, Surinam Grass",0%
same,pest or weed control at 500 g/ha,"[13]; pre-emergence, Preemergence, scale 0 to 100 (0 no effect, 100 complete control), read-out: Surinam Grass plant response rating",20%
same,pest or weed control at 125 g/ha,"[14]; post-emergence, Postemergence, scale 0 to 100 (0 no effect, 100 complete control), read-out: Velvetleaf plant response rating",50%
same,pest or weed control at 500 g/ha,"[14]; post-emergence, Postemergence, scale 0 to 100, read-out: Plant response rating, Velvetleaf",80%
same,pest or weed control at 125 g/ha,"[14]; pre-emergence, Preemergence, scale 0 to 100 (0 no effect, 100 complete control), read-out: Plant response rating, Velvetleaf",40%
same,pest or weed control at 500 g/ha,"[14]; pre-emergence, Preemergence, scale 0 to 100 (0 no effect, 100 complete control), read-out: Velvetleaf plant response rating",70%
